# From patent US11083773B2, “Peptides that block leukocyte recruitment and methods of use” (ARCH CANCER THERAPEUTICS, INC., priority 2014, dated 2021)
# Key:
# [1] = test system: 4T1 murine breast cancer cells; assay: Intrasplenic injection of 4T1 murine breast cancer cells, liver metastasis; format: in vivo, mouse; settings: 4-week post injection; control phage or LSALT expressing phage
# BALB/c mice = assay: LPS intoxication model of sepsis; format: in vivo; settings: versus control-bacteriophage/LPS and LPS only
# From the text: An intoxication model of sepsis was used to assess peptide efficacy on sepsis. In intoxication models, mice are challenged with a noninfectious, proinflammatory compound, such as LPS or killed bacteria. In the present study, protocols were used that followed Andonegui G, et al., J Clin Invest. 2009 July; 119(7):1921-30; and Yipp B G, et al. J Immunol. 2002 May 1; 168(9):4650-8.
# Briefly, purified LPS isolated from E. Coli was used to initiate endotoxemia response in BALB/c mice 6-8 weeks old. Mice were injected with LSALT bacteriophage that contain lethal amounts of LPS endotoxin.
# When the animals started to show signs of distress they were sacrificed by euthanasia. All mice treated in this group (5 out of 5) had to be sacrificed due to a septic response.
# [2] = test system: 143B human osteosarcoma cells; assay: Tail vein injection of 143B human osteosarcoma cells, mouse model for metastasis; format: in vivo
# Protocol: 5×10^5 143B human osteosarcoma cells stably expressing luciferase were injected into the tail vein of animals 5 mins after IV delivery of PBS or LSALT-peptide. Animals were sacrificed after 3 weeks. Lungs were then harvested, fixed in formalin, and embedded in paraffin. […] Metastatic lesions were visualized by staining human 143B osteosarcoma cells with anti-human nucleolin (brown). […] PBS n=4. LSALT-peptide n=6.
# In a similar model, 5×10^5 143B human osteosarcoma cells stably expressing luciferase were injected into the tail vein of animals 5 mins after IV delivery of PBS or LSALT-peptide. Animals were imaged weekly using bioluminescence imaging (Xenogen, IVIS 200).
# [3] = test system: 70 W human melanoma cells; assay: Tail vein injection of 70 W human melanoma cells expressing luciferase, lung tumor burden; format: in vivo, mice
# Protocol: FIG. 13A-13F show the tumor burden in lung tissue from mice injected via tail vein with 1×10^6 70 W human melanoma cells expressing luciferase, with or without prior injection of 50 μM or 500 μM LSALT peptide (13A-13C) and representative images of lungs with visible melanotic lung […] in mice injected via tail vein with 1×10^6 70 W human melanoma cells expressing luciferase, with or without prior injection of 50 μM or 500 μM LSALT peptide mice (13D-13F).
# FIG. 14A-14D show Xenogen images of lungs from mice injected via tail vein with human melanoma cells expressing luciferase with (14B) and without (14A) pretreatment with LSALT; and Xenogen images of lungs from mice injected treated as described for FIGS. 13A and 13B, and in the presence (14D) and absence (14C) of neutrophil depletion using anti-Ly6G/GRI antibody.
# In one treatment study, […] melanoma cells expressing luciferase were injected via tail vein with or without prior injection of 50 μM or 500 μM LSALT peptide.
# Animals were treated as above in the absence or presence of Neutrophil depletion using Anti-Ly6G/GR1, and the animals were imaged with the Xenogen light system.
# [4] = prior injection of 50 μM or 500 μM, 4 weeks post-injection
sequence,measurement,setting,value
LSALTPSPSWLKYKAL (listed as Homo sapiens) [LSALT peptide],"FIG. 12 result, printed as number of neutrophils present in liver sinusoid tissue",[1],significantly reduced the number of neutrophils present in liver sinusoid tissue
same,neutrophil adhesion in sinusoids / neutrophil recruitment to the liver (FIG. 17A),BALB/c mice,reduced neutrophil recruitment to the liver
same,metastatic burden in mouse liver by bioluminescence (FIG. 16),"[2]; IV delivery 5 mins before cells, 3 weeks post injection",reduction in bioluminescence
same,number of metastatic lesions in mouse lung (FIG. 15),"[2]; IV delivery 5 mins before cells, 3 weeks, histological sections",reduction in metastatic lesions
same,metastatic spread of osteosarcoma cell line,"[2]; mouse, in vivo",blocks the metastatic spread of an osteosarcoma cell line to the liver
same,"tumor burden by Xenogen imaging with neutrophil depletion (FIGS. 14C, 14D)",[3]; neutrophil depletion using Anti-Ly6G/GR1,the same result was seen
same,"tumor burden in the lungs, histology and excised lungs (FIG. 13)",[3]; [4],the least tumor burden
same,visible melanotic lung nodules (FIG. 13),[3]; [4],least frequently
same,"tumor burden by Xenogen imaging (FIGS. 14A, 14B)",[3]; without neutrophil depletion,progressively less tumor burden
